From ChEMBL document CHEMBL1149122 (J Med Chem, 2004)

Legend:
[1] = target: T1, Amine oxidase [flavin-containing] B (Homo sapiens, UniProt P27338); experiment: Binding affinity towards monoamine oxidase B activity was measured using a benzylamine assay
T1 sequence (P27338 whole entry): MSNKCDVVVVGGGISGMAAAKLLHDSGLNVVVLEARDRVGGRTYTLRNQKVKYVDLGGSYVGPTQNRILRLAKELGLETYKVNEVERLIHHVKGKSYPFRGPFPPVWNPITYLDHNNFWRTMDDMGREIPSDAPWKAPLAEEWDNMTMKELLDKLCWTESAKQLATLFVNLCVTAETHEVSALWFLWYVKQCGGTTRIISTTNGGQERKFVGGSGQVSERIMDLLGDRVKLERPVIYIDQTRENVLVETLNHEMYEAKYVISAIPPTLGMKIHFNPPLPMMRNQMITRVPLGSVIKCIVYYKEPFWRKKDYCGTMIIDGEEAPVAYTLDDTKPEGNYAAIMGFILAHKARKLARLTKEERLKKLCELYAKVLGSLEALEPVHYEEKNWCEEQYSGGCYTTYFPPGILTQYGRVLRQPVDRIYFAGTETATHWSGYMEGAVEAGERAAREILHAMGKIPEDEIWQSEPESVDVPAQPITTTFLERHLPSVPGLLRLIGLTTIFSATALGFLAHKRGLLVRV

[2] = target: T2, Amine oxidase [flavin-containing] A (Rattus norvegicus, UniProt P21396); experiment: Inhibitory concentration towards monoamine oxidase A in rat brain was measured; format: tissue-based
T2 sequence (P21396 whole entry): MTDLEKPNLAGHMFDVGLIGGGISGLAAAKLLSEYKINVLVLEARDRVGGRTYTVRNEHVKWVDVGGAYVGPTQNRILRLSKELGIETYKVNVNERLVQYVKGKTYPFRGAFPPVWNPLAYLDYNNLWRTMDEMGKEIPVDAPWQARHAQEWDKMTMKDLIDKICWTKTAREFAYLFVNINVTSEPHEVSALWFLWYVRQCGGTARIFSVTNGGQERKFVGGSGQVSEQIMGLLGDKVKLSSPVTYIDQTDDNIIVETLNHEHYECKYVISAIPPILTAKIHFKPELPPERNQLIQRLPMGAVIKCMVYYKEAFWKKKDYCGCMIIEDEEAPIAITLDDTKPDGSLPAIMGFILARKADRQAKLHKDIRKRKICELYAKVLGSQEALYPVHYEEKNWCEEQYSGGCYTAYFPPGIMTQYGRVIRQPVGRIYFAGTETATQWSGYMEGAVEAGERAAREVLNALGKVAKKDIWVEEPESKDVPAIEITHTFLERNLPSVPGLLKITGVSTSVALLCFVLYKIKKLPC

[3] = target: T3, Amine oxidase [flavin-containing] A (Homo sapiens, UniProt P21397); experiment: Binding affinity towards monoamine oxidase A activity was measured using a kynuramine assay
T3 sequence (P21397 whole entry): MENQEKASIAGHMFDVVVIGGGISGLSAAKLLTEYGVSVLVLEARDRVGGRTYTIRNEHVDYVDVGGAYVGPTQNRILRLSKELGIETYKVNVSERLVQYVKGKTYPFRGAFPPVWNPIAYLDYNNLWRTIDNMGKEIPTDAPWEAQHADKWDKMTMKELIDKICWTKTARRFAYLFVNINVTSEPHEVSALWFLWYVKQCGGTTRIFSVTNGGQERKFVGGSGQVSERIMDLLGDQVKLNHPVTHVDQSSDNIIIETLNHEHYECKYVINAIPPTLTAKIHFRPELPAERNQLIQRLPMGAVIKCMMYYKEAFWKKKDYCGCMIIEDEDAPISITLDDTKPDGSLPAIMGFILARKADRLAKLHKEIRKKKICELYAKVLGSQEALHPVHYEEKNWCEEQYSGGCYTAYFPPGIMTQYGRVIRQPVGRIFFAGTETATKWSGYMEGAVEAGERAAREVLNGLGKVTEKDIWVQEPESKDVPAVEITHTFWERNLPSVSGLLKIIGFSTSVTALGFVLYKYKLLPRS

[4] = target: T4, Amine oxidase [flavin-containing] B (Rattus norvegicus, UniProt P19643); experiment: Inhibitory concentration towards monoamine oxidase B in rat brain was measured; format: tissue-based
T4 sequence (P19643 whole entry): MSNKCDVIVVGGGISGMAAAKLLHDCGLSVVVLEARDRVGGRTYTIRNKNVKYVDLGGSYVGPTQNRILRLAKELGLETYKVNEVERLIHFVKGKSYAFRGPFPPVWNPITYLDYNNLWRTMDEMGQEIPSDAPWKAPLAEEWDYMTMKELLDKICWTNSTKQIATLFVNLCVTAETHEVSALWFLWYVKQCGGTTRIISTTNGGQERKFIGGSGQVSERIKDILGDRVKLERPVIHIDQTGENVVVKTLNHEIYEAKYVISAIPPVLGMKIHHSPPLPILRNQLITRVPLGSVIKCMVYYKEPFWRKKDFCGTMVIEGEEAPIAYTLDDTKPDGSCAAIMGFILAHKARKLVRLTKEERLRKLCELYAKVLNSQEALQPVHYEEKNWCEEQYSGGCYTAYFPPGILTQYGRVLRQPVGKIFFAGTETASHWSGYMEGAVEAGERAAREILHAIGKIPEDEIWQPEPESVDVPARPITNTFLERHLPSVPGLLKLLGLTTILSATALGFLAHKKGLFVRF

Row | Structure (SMILES) | Ki [1] [µM] | IC50 [2] [µM] | Ki [3] [µM] | IC50 [4] [µM]
1 | C#CCN[C@@H]1CCc2ccc(OC(=O)N(C)CC)cc21 [LADOSTIGIL] | 213 | 85 | 227 | 120
2 | C#CCN[C@@H]1CCc2ccc(O)cc21 | 17 |  | 1.9 | 
3 | C#CCN(C)[C@@H]1CCc2ccccc21 | 0.6 |  | 4.9 | 
